Test results taken from PMC6616570, “Discovery of novel oestrogen receptor α agonists and antagonists by screening a revisited privileged structure moiety for nuclear receptors” (Scientific Reports, 2019).
“Also recorded” adds a separate entry of the source. Read-outs that look alike come from different tables or passages of the source.

Legend:
ERα [1] = target: T1, ERα (Homo sapiens, UniProt P03372); assay: Luciferase-reporter assay for antagonist activity in the presence of E2, HeLa cells; format: cell-based; details: for ERα antagonist activity against E2-induced transcription (in words): 1 pM to 10 μM compound in a solution of E2 (1 nM); for reduction of E2-mediated ERα activity: highest concentration, 10 μM
T1 construct: expressed in transfected cells; host or cells: HeLa cells
T1 sequence (P03372 1-595): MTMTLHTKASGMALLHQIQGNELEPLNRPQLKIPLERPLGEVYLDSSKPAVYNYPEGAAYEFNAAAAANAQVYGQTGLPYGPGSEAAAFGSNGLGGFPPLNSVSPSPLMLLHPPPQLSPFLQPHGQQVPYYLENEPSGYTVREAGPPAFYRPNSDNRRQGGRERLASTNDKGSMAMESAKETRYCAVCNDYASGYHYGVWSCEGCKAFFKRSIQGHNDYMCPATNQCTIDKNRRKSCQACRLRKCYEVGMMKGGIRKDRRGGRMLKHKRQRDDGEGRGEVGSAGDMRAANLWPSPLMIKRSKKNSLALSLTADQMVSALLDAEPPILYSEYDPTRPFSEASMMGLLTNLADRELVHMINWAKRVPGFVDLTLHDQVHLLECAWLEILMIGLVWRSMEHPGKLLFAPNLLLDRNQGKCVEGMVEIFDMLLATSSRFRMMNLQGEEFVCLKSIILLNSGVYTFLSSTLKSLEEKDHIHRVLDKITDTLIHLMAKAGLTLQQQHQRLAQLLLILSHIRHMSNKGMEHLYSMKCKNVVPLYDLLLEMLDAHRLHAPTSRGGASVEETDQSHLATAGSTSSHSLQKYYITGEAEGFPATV
Method: (§1) HeLa cells were maintained in Eagle’s minimum essential medium (MEM; Nissui Pharmaceutical Co., Ltd, Tokyo, Japan) supplemented with 10% (v/v) foetal bovine serum treated with dextran-coated charcoal at 37 °C under 5% CO2. To analyse the agonist activity, HeLa cells were incubated at a density of 5 × 10^5 cells per 60-mm dish for 24 h, followed by transfection of 3 μg of the reporter plasmid (3 × ERE/pGL4.23) and 1 μg of the ERα expression plasmid (ERα/pcDNA3.1) using Lipofectamine LTX reagent (Thermo Fisher Scientific, Waltham, MA, USA) according to the manufacturer’s instructions. After 24 h, cells were harvested, suspended in Eagle’s MEM, and seeded into 96-well plates at 5 × 10^4 cells/well, followed by treatment with a series of the test compounds diluted with 1% bovine serum albumin (BSA)/PBS (v/v) to prepare different concentrations (0–10 μM). After a 24-h incubation, luciferase activity was measured using a Luciferase Assay system (Promega, Madison, WI, USA) according to the manufacturer’s instructions. Briefly, cells were lysed using reporter lysis buffer (Promega), and luminescence was measured using a Wallace 1420 ARVOsx multilabel counter (PerkinElmer). Cells treated only with 1% BSA/PBS were used as a vehicle control. Each assay was performed in triplicate and repeated at least three times.
To evaluate antagonistic activity, we examined serial concentrations of test compounds (0–10 μM, final) in the presence of 1 nM or 10 nM concentrations of E2, which normally induces basal levels of ERα-related transcriptional activity.

ERα [2] = target: T1, ERα; assay: Luciferase-reporter assay for agonist activity in transiently transfected HeLa cells; format: cell-based; details: for ERα agonist / transcriptional activity (in words): reporter-gene assay, 0.1-10 μM
Method: as §1, with “Briefly, cells were lysed using reporter lysis buffer (Promega), and luminescence was measured using a Wallace 1420 ARVOsx multilabel counter (PerkinElmer).” left out

ERα [3] = target: T2, ERα (Homo sapiens, UniProt P03372); assay: Competitive binding assay using [3H]E2 against GST-fused ERα LBD
T2 construct: the ERα LBD was amplified by polymerase chain reaction and subcloned into the pGEX-6P-1 vector; made in house; host or cells: Escherichia coli BL21α
T2 sequence (P03372 311-547 limits assumed): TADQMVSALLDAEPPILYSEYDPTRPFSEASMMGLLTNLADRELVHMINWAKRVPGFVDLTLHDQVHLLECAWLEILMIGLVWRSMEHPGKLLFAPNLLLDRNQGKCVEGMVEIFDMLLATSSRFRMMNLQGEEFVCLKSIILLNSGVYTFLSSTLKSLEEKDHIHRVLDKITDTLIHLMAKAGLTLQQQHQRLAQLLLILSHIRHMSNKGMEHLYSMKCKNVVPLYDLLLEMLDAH
Source text: The ERα cDNA clone was purchased from OriGene Technologies, Inc. (Rockville, MD, USA). For construction of the expression plasmid, the ERα LBD was amplified by polymerase chain reaction and subcloned into the pGEX-6P-1 vector (GE Healthcare, Chicago, IL, USA) to obtain as a GST-fused protein. The GST-fused ERα -LBD was expressed in Escherichia coli BL21α cells and purified using Glutathione-Sepharose 4B (GE Healthcare), followed by gel filtration on a Sephadex G-10 column (GE Healthcare).
We performed the radioligand binding assays for ERα according to previously reported by method. […] GST-ERα-LBD (20 ng) was incubated with a series of [^3H]E2 (0.1–30 nM) in a total volume of 100 μL of binding buffer [10% glycerol, 10 mM Tris, 1 mM EGTA, 1 mM EDTA, 1 mM sodium vanadate (V), 0.5 mM phenylmethylsulfonyl fluoride, and 0.2 mM leupeptin (pH 7.4)] for 2 h at 20 °C in order to estimate total binding. Specific binding was calculated by subtracting the nonspecific binding determined by addition of 10 μM non-radiolabeled E2 to another set of working solutions from the observed total binding. After incubation, free radioligand was removed by addition and incubation of 100 μL 0.4% dextran-coated charcoal (Sigma-Aldrich) in phosphate-buffered saline (PBS; pH 7.4) on ice for 10 min. After centrifugation for 10 min at 15,000 rpm, the radioactivity of each supernatant was measured using a liquid scintillation counter (LS6500; Beckman Coulter, Fullerton, CA, USA). The data of the calculated specific binding of [^3H]E2 were assessed by Scatchard plot analysis.
The binding affinities of the test compounds were evaluated by competitive binding assays. Each chemical was dissolved in DMSO to prepare a 1.0-mM stock solution, followed by subsequent incubation of serial dilutions (1 pM to 10 μM) with GST- ERα-LBD (20 ng) and [^3H]E2 (5 nM, final) for 2 hrs at 20 °C to assess their ability to hinder the binding of [^3H]E2. Free radioligand was absorbed by 0.4% dextran-coated charcoal for the saturation binding assay and removed by the vacuum filtration system using a 96-well filtration plate (MultiScreenHTS HV; […] pore size; Merck KGaA, Darmstadt, Germany). The radioactivities of the eluents were measured using a TopCount NXT system (PerkinElmer) for 3 min/well.

[4] = contaminant of industrial BPA; cited from earlier work
[5] = test system: adult male mouse offspring; details: in utero exposure to 2 μg/kg/day or 20 μg/kg/day; cited from earlier work
[6] = test system: oestrogen receptors (ERs); details: cited from earlier work
[7] = [3H]17β-oestradiol radioligand (5 nM), GST-ERα-LBD, mean ± SE, read-out: Binding affinity (IC50)

Row | SMILES | ERα antagonist activity against E2-induced transcription (in words) (ERα [1]) | ERα agonist / transcriptional activity (in words) (ERα [2]) | reduction of E2-mediated ERα activity (ERα [1]) | IC50 (ERα [3]; [7]) [µM] | other results
1 | Oc1ccc(C(=C(Cl)Cl)c2ccc(O)cc2)cc1 [compound 1, bisphenol C] | did not observe any antagonistic activity | apparent agonistic activity |  |  | transcriptional activity relative to that of E2 (ERα [2]; ERα reporter-gene assay): ~ 60%; IC50 (ERα [3]; [3H][…] radioligand (5 nM), GST-ERα-LBD, mean ± SE, read-out: Binding affinity (IC50)): 0.00281 ± 0.00061 µM
2 | CC(C)CC(C)(c1ccc(O)cc1)c1ccc(O)cc1 [compound 2, 4,4′-(1,3-dimethylbuthylidene)bisphenol] |  |  |  |  | estrogenic activity higher than laboratory grade BPA [4]: 8 fold
3 | CC(C)(c1ccc(O)cc1)c1cccc(C(C)(C)c2ccc(O)cc2)c1 [compound 7, bisphenol M] | inhibited the agonist activity of 1 nM E2 in a dose-dependent manner | weak transcriptional activity | up to 90% |  | ERα agonist / transcriptional activity (in words) (ERα [2]; listed as BPM): almost no ERα-specific transcriptional activity; IC50 (ERα [3]): 0.0568 ± 0.0117 µM
4 | CC(C)(c1ccc(O)cc1)c1ccc(C(C)(c2ccc(O)cc2)c2ccc(O)cc2)cc1 [compound 10, α,α,α′-tris(4-hydroxyphenyl)-1-ethyl-4-isopropylbenzene] | inhibited the agonist activity of 1 nM E2 in a dose-dependent manner | weak transcriptional activity; also recorded: almost no ERα-specific transcriptional activity | up to 90% | 0.0617 ± 0.0104 | 
5 | CC(C)(c1ccc(O)cc1)c1ccc(C(C)(C)c2ccc(O)cc2)cc1 [compound 11, bisphenol P] | inhibited the agonist activity of 1 nM E2 in a dose-dependent manner | weak transcriptional activity | up to 90% | 0.176 ± 0.035 | ERα agonist / transcriptional activity (in words) (ERα [2]; listed as BPP): almost no ERα-specific transcriptional activity
6 | Nc1cc(C(c2ccc(O)c(N)c2)(C(F)(F)F)C(F)(F)F)ccc1O [compound 15, 2,2-bis(3-amino-4-hydroxyphenyl)hexafluoropropane] |  | apparent agonistic activity |  | 0.334 ± 0.112 | 
7 | CC1(C)CC2(CC(C)(C)c3ccc(O)cc3O2)Oc2cc(O)ccc21 [compound 16, spirobicromane] | inhibited the agonist activity of 1 nM E2 in a dose-dependent manner | weak transcriptional activity | up to 90% | 0.366 ± 0.02 | 
8 | Cc1cc(C(C)(C)c2ccc(C(C)(C)c3cc(C)c(O)c(C)c3)cc2)cc(C)c1O [compound 18, α,α′-bis(4-hydroxy-3,5-dimethylphenyl)-1,4-diisopropylbenzene] | inhibited the agonist activity of 1 nM E2 in a dose-dependent manner | weak transcriptional activity | up to 90% | 0.733 ± 0.628 | 
9 | Nc1ccc(Oc2ccc(C(c3ccc(Oc4ccc(N)cc4)cc3)(C(F)(F)F)C(F)(F)F)cc2)cc1 [compound 19, 2,2-bis[4-(4-aminophenoxy)phenyl]hexafluoropropane] |  | weak transcriptional activity |  | 1.03 ± 0.375 | 
10 | CC(C)(c1ccc(O)cc1)c1ccc(O)cc1 [compound 21, bisphenol A] |  | apparent agonistic activity |  |  | effect on prostate in adult male offspring (in words) [5]: increases prostate size and weight; affinity for ERs weaker than 17β-oestradiol (E2) [6]: > 1,000 fold
11 | Oc1ccc(C2(c3ccc(O)cc3)c3ccccc3-c3ccccc32)cc1 [compound 22, 9,9-bis(4-hydroxyphenyl)fluorine] |  | weak transcriptional activity |  | 2.23 ± 0.202 | binding to the ERα LBD (in words) (ERα [3]; competitive binding assay using [3H]E2): directly binds to the ERα LBD
